Measured values published in PubChem BioAssay AID330 (DTP/NCI, 2004).
Values joined by “and” are separate entries in the source; they are usually repeats but may differ in a detail not shown here. Equal values may be shown once. Toxic doses and inconclusive results are not listed. How the source made its calls: active means survival T/C of 150% or more; inactive means T/C below 125% in these data.

Test system: P388 leukemia ip, CD2F1 mice, survival T/C
Experiment: NCI In Vivo Anticancer Drug Screen. Data for tumor model P388 Leukemia (intraperitoneal) in CD2F1 (CDF1) mice
Settings: endpoint: median survival time, higher = longer survival
Method in brief: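 Mice carrying the transplanted tumor received test compound or vehicle. Survival was recorded in each group, and the value is the treated-group measurement divided by that of the vehicle-treated control group.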

[1] = dose: 100.0 mg/kg/injection, schedule: Q01DX009 (ip), vehicle: saline with Tween-80
[2] = dose: 100.0 mg/kg/injection, schedule: Q04DX003 (ip), vehicle: saline with Tween-80
[3] = dose: 200.0 mg/kg/injection, schedule: Q01DX009 (ip), vehicle: saline with Tween-80
[4] = dose: 200.0 mg/kg/injection, schedule: Q04DX003 (ip), vehicle: saline with Tween-80
[5] = dose: 400.0 mg/kg/injection, schedule: Q04DX003 (ip), vehicle: saline with Tween-80
[6] = dose: 50.0 mg/kg/injection, schedule: Q01DX009 (ip), vehicle: saline with Tween-80
[7] = dose: 50.0 mg/kg/injection, schedule: Q01DX005 (ip), vehicle: Klucel (hydroxypropylcellulose) (HPC)
[8] = dose: 60.0 mg/kg/injection, schedule: Q01DX005 (ip), vehicle: Klucel (hydroxypropylcellulose) (HPC)
[9] = dose: 240.0 mg/kg/injection, schedule: Q01DX005 (ip), vehicle: Klucel (hydroxypropylcellulose) (HPC)
[10] = dose: 50.0 mg/kg/injection, schedule: Q01DX005 (ip), vehicle: saline with Tween-80

Measured: T/C

Nc1nc(SCc2ccccc2[N+](=O)[O-])c2[nH]cnc2n1
inactive: [1] 104 % of control | [2] 100 % of control | [3] 95 % of control | [4] 100 % of control | dose: 400.0 mg/kg/injection, schedule: Q01DX009 (ip), vehicle: saline with Tween-80 90 % of control | [5] 91 % of control

CC1Cn2c(c(-c3ccccc3)c(=O)[nH]c2=S)O1 (stereo unspecified)
inactive: [6] 100 % of control | [1] 98 % of control | [3] 91 % of control

Cc1cc(Cl)c(C)cc1Cl
inactive: [6] 91 % of control | [1] 95 % of control | [2] 105 % of control | [3] 95 % of control | [4] 110 % of control | [5] 110 % of control

CCN(CC)CCNC(=O)Cc1cc(O)c2c(c1O)C(=O)c1ccccc1C2=O
inactive: [2] 106 % of control | [4] 106 % of control | [5] 106 % of control

C[N+]1(C)N=C([O-])N(c2ccc(Cl)cc2)C1=O
inactive: dose: 100.0 mg/kg/injection, schedule: Q04DX002 (ip), vehicle: saline 100 % of control | dose: 200.0 mg/kg/injection, schedule: Q04DX002 (ip), vehicle: saline 103 % of control | dose: 400.0 mg/kg/injection, schedule: Q04DX002 (ip), vehicle: saline 102 % of control

COc1ccc(C(Cc2ccccc2)NCCNCCO)cc1 (stereo unspecified)
inactive: [7] 101 % of control | dose: 100.0 mg/kg/injection, schedule: Q01DX005 (ip), vehicle: Klucel (hydroxypropylcellulose) (HPC) 101 % of control

CC(=O)OCCSCCO
inactive: dose: 25.0 mg/kg/injection, schedule: Q01DX009 (ip), vehicle: water 94 % of control | dose: 50.0 mg/kg/injection, schedule: Q01DX009 (ip), vehicle: water 99 % of control | dose: 100.0 mg/kg/injection, schedule: Q01DX009 (ip), vehicle: water 99 % of control | dose: 200.0 mg/kg/injection, schedule: Q01DX009 (ip), vehicle: water 104 % of control | dose: 400.0 mg/kg/injection, schedule: Q01DX009 (ip), vehicle: water 99 % of control

C[CH2][Sn]([CH2]C)([N]=C=S)[N]=C=S
inactive: dose: 3.12 mg/kg/injection, schedule: Q01DX009 (ip), vehicle: saline 99 % of control and 100 % of control | dose: 6.25 mg/kg/injection, schedule: Q01DX009 (ip), vehicle: saline 86 % of control and 93 % of control

CC(=O)/C(=C\c1ccco1)C(=O)CCN(C)C
inactive: dose: 60.0 mg/kg/injection, schedule: Q01DX005 (ip), vehicle: saline 108 % of control and 109 % of control and 115 % of control | dose: 120.0 mg/kg/injection, schedule: Q01DX005 (ip), vehicle: saline 106 % of control and 118 % of control and 120 % of control | dose: 240.0 mg/kg/injection, schedule: Q01DX005 (ip), vehicle: saline 108 % of control and 115 % of control | dose: 480.0 mg/kg/injection, schedule: Q01DX005 (ip), vehicle: saline 101 % of control

N#CC(C#N)=NNc1ccc([N+](=O)[O-])cc1Cl
inactive: dose: 6.25 mg/kg/injection, schedule: Q01DX009 (ip), vehicle: Klucel (hydroxypropylcellulose) (HPC) 103 % of control | dose: 12.5 mg/kg/injection, schedule: Q01DX009 (ip), vehicle: Klucel (hydroxypropylcellulose) (HPC) 103 % of control

CCOC(=NC#N)NOC
inactive: [8] 93 % of control | dose: 120.0 mg/kg/injection, schedule: Q01DX005 (ip), vehicle: Klucel (hydroxypropylcellulose) (HPC) 98 % of control | [9] 102 % of control

CC1(C)COCN(C2CCCCC2)C1
inactive: dose: 15.0 mg/kg/injection, schedule: Q01DX009 (ip), vehicle: saline with Tween-80 119 % of control | dose: 30.0 mg/kg/injection, schedule: Q01DX009 (ip), vehicle: saline with Tween-80 100 % of control | dose: 60.0 mg/kg/injection, schedule: Q01DX009 (ip), vehicle: saline with Tween-80 108 % of control

O=[N+]([O-])C1=CC(=N/Cl)/C=CC/1=N/Cl
inactive: dose: 12.5 mg/kg/injection, schedule: Q01DX005 (ip), vehicle: saline 105 % of control | dose: 25.0 mg/kg/injection, schedule: Q01DX005 (ip), vehicle: saline 100 % of control | dose: 50.0 mg/kg/injection, schedule: Q01DX005 (ip), vehicle: saline 101 % of control and 97 % of control | dose: 100.0 mg/kg/injection, schedule: Q01DX005 (ip), vehicle: saline 106 % of control | dose: 200.0 mg/kg/injection, schedule: Q01DX005 (ip), vehicle: saline 116 % of control

CCOC(=O)C1=C(C)NC(=O)NC1c1coc2cc(C)cc(C)c2c1=O (stereo unspecified)
inactive: dose: 12.5 mg/kg/injection, schedule: Q01DX005 (ip), vehicle: Klucel (hydroxypropylcellulose) (HPC) 86 % of control | dose: 25.0 mg/kg/injection, schedule: Q01DX005 (ip), vehicle: Klucel (hydroxypropylcellulose) (HPC) 91 % of control | [7] 98 % of control and 96 % of control

COc1cc2c(Cl)ncnc2c(OC)c1OC
inactive: [10] 106 % of control | dose: 100.0 mg/kg/injection, schedule: Q01DX005 (ip), vehicle: saline with Tween-80 106 % of control | dose: 200.0 mg/kg/injection, schedule: Q01DX005 (ip), vehicle: saline with Tween-80 109 % of control

CC(=O)CC(=O)c1ccc(C)cc1.CC(=O)CC(=O)c1ccc(C)cc1.[Ni]
inactive: dose: 3.12 mg/kg/injection, schedule: Q01DX005 (ip), vehicle: saline with Tween-80 97 % of control | dose: 6.25 mg/kg/injection, schedule: Q01DX005 (ip), vehicle: saline with Tween-80 95 % of control | dose: 12.5 mg/kg/injection, schedule: Q01DX005 (ip), vehicle: saline with Tween-80 90 % of control | dose: 25.0 mg/kg/injection, schedule: Q04DX002 (ip), vehicle: saline with Tween-80 95 % of control | dose: 25.0 mg/kg/injection, schedule: Q04DX003 (ip), vehicle: saline with Tween-80 97 % of control | [10] 91 % of control | dose: 50.0 mg/kg/injection, schedule: Q04DX002 (ip), vehicle: saline with Tween-80 99 % of control | dose: 50.0 mg/kg/injection, schedule: Q04DX003 (ip), vehicle: saline with Tween-80 101 % of control | dose: 100.0 mg/kg/injection, schedule: Q04DX002 (ip), vehicle: saline with Tween-80 105 % of control | dose: 200.0 mg/kg/injection, schedule: Q04DX002 (ip), vehicle: saline with Tween-80 98 % of control

Cn1c(=O)[nH]cc(F)c1=O
inactive: dose: 10.0 mg/kg/injection, schedule: Q01DX009 (ip), vehicle: saline 104 % of control | dose: 20.0 mg/kg/injection, schedule: Q01DX009 (ip), vehicle: saline 100 % of control | dose: 40.0 mg/kg/injection, schedule: Q01DX009 (ip), vehicle: saline 98 % of control

O=S(=O)(OCCCl)c1ccc(F)cc1
inactive: [6] 109 % of control | [1] 101 % of control | [3] 100 % of control

O=C1OCCC12C(c1ccccc1)C1(CCOC1=O)C2c1ccccc1 (stereo unspecified)
inactive: dose: 1.87 mg/kg/injection, schedule: Q01DX005 (ip), vehicle: Klucel (hydroxypropylcellulose) (HPC) 94 % of control | dose: 3.75 mg/kg/injection, schedule: Q01DX005 (ip), vehicle: Klucel (hydroxypropylcellulose) (HPC) 94 % of control | dose: 7.5 mg/kg/injection, schedule: Q01DX005 (ip), vehicle: Klucel (hydroxypropylcellulose) (HPC) 86 % of control | [8] 86 % of control | [9] 94 % of control

CN(/N=C/c1ccccc1O)C(=O)c1ccccc1N
inactive: [6] 105 % of control | [1] 107 % of control | [3] 104 % of control

O=C(Nc1cccc(Cl)c1Cl)SCCSC(=O)Nc1cccc(Cl)c1Cl
inactive: dose: 50.0 mg/kg/injection, schedule: Q01DX009 (ip), vehicle: gum acacia 92 % of control | dose: 100.0 mg/kg/injection, schedule: Q01DX009 (ip), vehicle: gum acacia 100 % of control | dose: 200.0 mg/kg/injection, schedule: Q01DX009 (ip), vehicle: gum acacia 96 % of control

FC(F)(F)c1ccc(NC(=S)SCc2ccc(Cl)cc2)cc1
inactive: dose: 50.0 mg/kg/injection, schedule: Q01DX009 (ip), vehicle: suspension in saline 90 % of control | dose: 100.0 mg/kg/injection, schedule: Q01DX009 (ip), vehicle: suspension in saline 100 % of control | dose: 200.0 mg/kg/injection, schedule: Q01DX009 (ip), vehicle: suspension in saline 108 % of control

Cc1c2c(Cc3ccccc3)nccc2c(C)c2c1c1ccccc1n2Cc1ccccc1
inactive: dose: 6.25 mg/kg/injection, schedule: Q04DX003 (ip), vehicle: distilled water + Tween-80 87 % of control | dose: 12.5 mg/kg/injection, schedule: Q04DX003 (ip), vehicle: distilled water + Tween-80 88 % of control | dose: 50.0 mg/kg/injection, schedule: Q04DX003 (ip), vehicle: distilled water + Tween-80 86 % of control
